These results are taken from US20060269935A1, “Genetic predictor for clinical use of drugs used in the treatment of neurological conditions” (UCL Biomedica PLC, priority 2005, published 2006).

The conditions of series [1]: cited from earlier work; for Serum concentrations of phenytoin: single dose, healthy volunteers.
The target of the next series is CYP2C9*2 (Homo sapiens, UniProt P11712, R144C). To be noted: in vitro expression; cited from earlier work.
For series [2], the system named is patients with a diagnosis of epilepsy. The settings on record: human, in vivo. From the text: In this study we have considered the known functional alleles *2 and *3 at the CYP2C9 gene, and the putatively functional 3435C>T polymorphism in the ABCB1 gene. As no common functional variants are known for SCN1A, we used a haplotype tagging strategy (Weale et al., Am J. Hum. Genet. 73, 551-565, 2003). […] For carbamazepine, we related variation in both SCN1A and ABCB1 to maximum dose in 425 patients. Finally, we tested for association with presence or absence of ADRs. […] In most, but not all cases the maximum dose used here will also be the maintenance dose, since starting doses tend to be lower than what is required (see discussion below).
The study was approved by the relevant institutional Ethics Committees. Patients who self-identified, or were determined by the treating physician, as being of North Western European origin with a diagnosis of epilepsy were recruited from the specialised epilepsy clinic of the National Hospital for Neurology and Neurosurgery after written informed consent was obtained. Extensive clinical data were obtained and stored in a computerized database. […]
The following clinical details were recorded whenever available: date when phenytoin/carbamazepine was started and stopped, maximum dosage reached, response and occurrence of ADRs. […]

The next series concerns the target CYP2C9 (Homo sapiens, UniProt P11712). To be noted: estimated; cited from earlier work.

Read-outs that look alike come from different tables or passages of the source.

For `O=C1NC(=O)C(c2ccccc2)(c2ccccc2)N1` [phenytoin, 5,5-diphenylhydantoin], the “Serum concentrations of phenytoin” value in series [1] (*2 carriers) is “*2 carriers have increased serum”; in series [1] (*3 carriers) it was “patients(33, 34) and increased serum”. Moreover, the Maximal elimination rates result in series [1] (*3 carriers compared with *1/1 patients) is recorded as “*3 carriers have significantly lower”. The “Reduction in phenytoin clearance compared to *1” value on CYP2C9*2 is 29% reduction in. Besides, the “Average dose range across genotypes” value in series [2] is given as 127 mg. The “Share of phenytoin inactivation for which CYP2C9 is responsible” value at CYP2C9 is “up to 90%”.

For the compound `NC(=O)N1c2ccccc2C=Cc2ccccc21` [carbamazepine, 5H-dibenz[b,f]azepine-5-carboxamide], the “Average dose range across genotypes” value in series [2] is reported as 230 mg.
